These results are taken from PubChem BioAssay (NCI).

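Five compound concentrations were applied to cells in 96-well plates for 48 hours; endpoints were derived by simple linear interpolation of the resulting dose-response curve. At the GI50, growth is halved. TGI is the concentration that stops growth completely.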 A value given as a limit tells only on which side of the number the result lay.

Some test systems named below: BT-549 breast; HOP-62 NSCLC; IGROV1 ovarian; KM12 colon; MOLT-4 leukemia; NCI-H226 lung; NCI/ADR-RES ovarian; PC-3 prostate; SK-MEL-2 melanoma; SK-OV-3 ovarian.
Holding throughout (assay): NCI-60 cell line screen, 48 h

With `CCOC(=O)c1c(C(F)(F)F)n([O-])c2ccc(Cl)cc2[n+]1=O`, the GI50 is 2.02 µM in the assay on BT-549 breast; 1.88 µM in the assay on HOP-62 NSCLC; 1.85 µM in the assay with IGROV1 ovarian; 2.07 µM in the assay on KM12 colon; 2.32 µM with MOLT-4 leukemia; 2.13 µM in the assay with NCI-H226 lung. The GI50 was 2.8 µM in the assay with NCI/ADR-RES ovarian, 1.45 µM in the assay with PC-3 prostate, 1.94 µM in the assay on SK-MEL-2 melanoma and 4.14 µM in the assay with SK-OV-3 ovarian. Also, the TGI is 4.95 µM in the assay on BT-549 breast; 3.47 µM in the assay on HOP-62 NSCLC; 3.77 µM in the assay on IGROV1 ovarian; 3.8 µM in the assay with KM12 colon; 5.18 µM with MOLT-4 leukemia; 5.78 µM in the assay with NCI-H226 lung. The TGI in the assay with NCI/ADR-RES ovarian was 6 µM; in the assay on PC-3 prostate it was 3.02 µM; in the assay on SK-MEL-2 melanoma, 4.34 µM; in the assay on SK-OV-3 ovarian, 16.1 µM.
Consider `Cc1cc(NS(=O)(=O)c2ccc(NC(=O)COc3ccc(-c4cc5ccccc5[nH]4)cc3)cc2)no1`, for which the GI50 in the assay on BT-549 breast is 2.12 µM; in the assay with HOP-62 NSCLC, 2.95 µM; in the assay with IGROV1 ovarian, 2.02 µM; with KM12 colon, 1.51 µM; in the assay with MOLT-4 leukemia it was 2.05 µM; with NCI-H226 lung, 2.14 µM. Further, the GI50 was 2.64 µM in the assay on NCI/ADR-RES ovarian, 1.94 µM in the assay on PC-3 prostate, 1.86 µM with SK-MEL-2 melanoma and 1.85 µM in the assay with SK-OV-3 ovarian. The TGI in the assay with BT-549 breast came out at 5.97 µM; in the assay on HOP-62 NSCLC, 7.74 µM; with IGROV1 ovarian, 4.41 µM; with KM12 colon it was 3.24 µM; with MOLT-4 leukemia, 9.72 µM; with NCI-H226 lung it was 9.88 µM. Moreover, the TGI is 9.37 µM in the assay on NCI/ADR-RES ovarian, 6.91 µM in the assay on PC-3 prostate, 3.76 µM in the assay on SK-MEL-2 melanoma and 3.55 µM in the assay with SK-OV-3 ovarian.
`Cc1cc2oc(=O)c(Cl)c(Cl)c2c(C)c1Cl`: the TGI with BT-549 breast came to 39 µM; in the assay on HOP-62 NSCLC, 66 µM; in the assay with IGROV1 ovarian, 15.8 µM; with KM12 colon it was 29.4 µM; in the assay on MOLT-4 leukemia it was 5.21 µM; in the assay with NCI-H226 lung, 33.2 µM. For the same compound, the TGI in the assay on NCI/ADR-RES ovarian was determined as 38.4 µM; in the assay with PC-3 prostate, 23.6 µM; in the assay with SK-MEL-2 melanoma, 26 µM; in the assay with SK-OV-3 ovarian, 27.6 µM.
For `O=S(=O)(CC(O)C(Cl)(Cl)Cl)NNc1ccccc1` (stereo not given), the TGI in the assay with BT-549 breast, in the assay on HOP-62 NSCLC, in the assay with IGROV1 ovarian, with KM12 colon, in the assay with MOLT-4 leukemia and in the assay on NCI-H226 lung was more than 100 µM each time. Moreover, the TGI with NCI/ADR-RES ovarian, in the assay with PC-3 prostate, with SK-MEL-2 melanoma and in the assay on SK-OV-3 ovarian was more than 100 µM throughout.
As to `O=C(O)CN(CC(=O)O)c1ccccc1`, the TGI with BT-549 breast, with HOP-62 NSCLC, in the assay on IGROV1 ovarian, in the assay on KM12 colon, in the assay with MOLT-4 leukemia and in the assay with NCI-H226 lung was more than 100 µM in each case. For the same compound, the TGI with NCI/ADR-RES ovarian, in the assay on PC-3 prostate, with SK-MEL-2 melanoma and in the assay with SK-OV-3 ovarian was more than 100 µM each time.
For the compound `Cc1ccc(-c2c3c(N)nc(-c4ccncc4)nc3nc3c2c(C)nn3-c2ccccc2)cc1`, the GI50 is 7.38 µM in the assay on BT-549 breast; 0.647 µM in the assay on HOP-62 NSCLC; 22.5 µM in the assay with IGROV1 ovarian; 31.4 µM in the assay on KM12 colon; more than 37.5 µM with MOLT-4 leukemia; 14 µM with NCI-H226 lung. In addition, the GI50 in the assay with NCI/ADR-RES ovarian was 7.5 µM; in the assay on PC-3 prostate it was 32.3 µM; in the assay on SK-MEL-2 melanoma, 13.7 µM; with SK-OV-3 ovarian, 3.41 µM. Also, the TGI in the assay on BT-549 breast is 17.9 µM; with HOP-62 NSCLC, 1.95 µM; in the assay with IGROV1 ovarian, more than 37.5 µM; in the assay on KM12 colon, more than 37.5 µM; in the assay on MOLT-4 leukemia, more than 37.5 µM; with NCI-H226 lung it was more than 37.5 µM. Besides, the TGI was more than 37.5 µM with NCI/ADR-RES ovarian, more than 37.5 µM in the assay on PC-3 prostate, more than 37.5 µM with SK-MEL-2 melanoma and 10.2 µM in the assay on SK-OV-3 ovarian.
With `Cc1cc(Br)c2nsnc2c1[N+](=O)[O-]`, the GI50 in the assay on BT-549 breast is 3.95 µM; in the assay with HOP-62 NSCLC, 4.59 µM; with IGROV1 ovarian it was 1.65 µM; with KM12 colon, 0.245 µM; with MOLT-4 leukemia it was 1.64 µM; in the assay with NCI-H226 lung it was 7.13 µM. For the same compound, the GI50 in the assay on NCI/ADR-RES ovarian is 4.54 µM; with PC-3 prostate it was 4.49 µM; in the assay on SK-MEL-2 melanoma, 3.45 µM; with SK-OV-3 ovarian, 13.5 µM. Also, the TGI worked out at 12 µM in the assay with BT-549 breast; 16.3 µM in the assay with HOP-62 NSCLC; 3.62 µM in the assay on IGROV1 ovarian; 0.665 µM with KM12 colon; 4.93 µM in the assay with MOLT-4 leukemia; 19.2 µM in the assay on NCI-H226 lung. The TGI in the assay with NCI/ADR-RES ovarian came to 20.7 µM; in the assay with PC-3 prostate, 15.8 µM; with SK-MEL-2 melanoma, 8.89 µM; in the assay with SK-OV-3 ovarian, 26.4 µM.
`CCc1ccc(Oc2nccc(-c3c(-c4ccc(F)cc4)ncn3C3CCNCC3)n2)cc1`: the GI50 was 5.55 µM in the assay with BT-549 breast; 4.13 µM in the assay on HOP-62 NSCLC; 4.71 µM in the assay on IGROV1 ovarian; 6.01 µM with KM12 colon; 7.15 µM in the assay with MOLT-4 leukemia; 6.81 µM in the assay with NCI-H226 lung. Moreover, the GI50 with NCI/ADR-RES ovarian was 4.69 µM; in the assay on PC-3 prostate, 5.33 µM; in the assay with SK-MEL-2 melanoma, 5.24 µM; in the assay with SK-OV-3 ovarian, 4.37 µM. The TGI in the assay with BT-549 breast worked out at 13.1 µM; in the assay on HOP-62 NSCLC, 8.53 µM; in the assay with IGROV1 ovarian, 12.1 µM; in the assay with KM12 colon, 14.3 µM; in the assay with MOLT-4 leukemia it was 15.8 µM; with NCI-H226 lung it was 16.3 µM. The TGI is 12.9 µM with NCI/ADR-RES ovarian, 14.1 µM in the assay with PC-3 prostate, 9.48 µM in the assay on SK-MEL-2 melanoma and 9.21 µM in the assay on SK-OV-3 ovarian.
`O=C(NCCSSCCNC(=O)/C(Cc1ccc(O)c(Br)c1)=N/O)/C(Cc1ccc(O)c(Br)c1)=N/O`: the TGI stood at 15 µM in the assay on BT-549 breast; 6.1 µM in the assay on HOP-62 NSCLC; 7.15 µM in the assay with IGROV1 ovarian; 10.5 µM in the assay with KM12 colon; 8.58 µM in the assay with MOLT-4 leukemia; 41.9 µM with NCI-H226 lung. The TGI in the assay on NCI/ADR-RES ovarian turned out to be 7.97 µM; in the assay on PC-3 prostate, 8.21 µM; in the assay on SK-MEL-2 melanoma, 3.26 µM; in the assay on SK-OV-3 ovarian, 3.32 µM.
